Experimental data published in patent US10005767B2, “Compositions and methods for inhibition of the JAK pathway” (Rigel Pharmaceuticals, Inc., priority 2009, dated 2018).
Structures can show the parent of a compound that is named as a salt. Where two headings read alike, the source gives them in different places.

Tested on: human primary T-cells, IL-2 stimulated proliferation (JAK-1 and JAK-3 dependent; reported as JAK3 activity)
Assay: Human primary T-cell proliferation stimulated by IL-2 (Example 3)
Assay type: cell-based
Conditions: tested under conditions described in Example 3 (IL-2 stimulated human primary T-cell proliferation), read-out: ability to inhibit JAK3 activity, IC50 range (Table V)
In short: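 Peripheral-blood human T-cells pre-activated via TCR/CD28, IL-2-starved overnight, then cultured 72 h at 37 °C with compound in Yssel's medium containing IL-2 (80 U/mL in cell suspension). Proliferation read as viable-cell ATP by CellTiter-Glo luminescence; reduction versus control taken as JAK pathway inhibition.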

Compound | IC50 (Homo sapiens, T-cell) | other results
CCCNC(C)c1cccc(Nc2ncc(C)c(Nc3ccc4oc(=O)[nH]c4c3)n2)c1 (centres unmarked) [Compound I-208, 5-(5-methyl-2-(3-(1-(propylamino)ethyl)phenylamino)pyrimidin-4-ylamino)benzo[d]oxazol-2(3H)-one] | < 500 nM | –
Cc1cnc(Nc2cc(C)c(C)c(C)c2)nc1Nc1cc(Cl)c2oc(=O)n(COP(=O)(O)O)c2c1 [Compound I-525, N4-[7-chloro-3-(phosphonooxy)methyl-2-oxo-2,3-dihydro-1,3-benzoxazol-5-yl]-5-methyl-N2-(3,4,5-trimethyl)phenyl-2,4-pyrimidinediamine] | – | IC50: 500 to 5000 nM
Cc1cc(Nc2ncc(C)c(Nc3ccc4oc(=O)[nH]c4c3)n2)cnc1C [II-153, N2-(2,3-dimethylpyridin-5-yl)-5-methyl-N4-(2-oxo-2,3-dihydro-1,3-benzoxazol-5-yl)-2,4-pyrimidinediamine] | < 500 nM | –
Cc1cnc(Nc2ccc3c(c2)CN(O)C3)nc1Nc1ccc2oc(=O)[nH]c2c1 [III-2, N4-(benzo[d]oxazol-2(3H)-on-5-yl)-N2-(2-hydroxyisoindolin-5-yl)-5-methylpyrimidine-2,4-diamine] | < 500 nM | –
Cc1cnc(Nc2ccnc(N3CCNCC3)c2)nc1Nc1ccc2oc(=O)[nH]c2c1 [IV-7, N4-(benzo[d]oxazol-2(3H)-on-5-yl)-N2-[2-(piperazino)pyridin-4-yl]-5-methylpyrimidine-2,4-diamine] | 5000 to 10000 nM | –
Cc1cnc(Nc2ccc(C(=O)N3CCOCC3)cc2)nc1Nc1ccc2oc(=O)[nH]c2c1 [Compound I-257, 5-(5-methyl-2-(4-(morpholine-4-carbonyl)phenylamino)pyrimidin-4-ylamino)benzo[d]oxazol-2(3H)-one] | < 500 nM | –
Cc1cnc(Nc2cccc(S(=O)(=O)C3CCCC3)c2)nc1Nc1ccc2oc(=O)[nH]c2c1 [Compound I-157, 5-[2-(3-Cyclopentanesulfonyl-phenylamino)-5-methyl-pyrimidin-4-ylamino]-3H-benzooxazol-2-one] | < 500 nM | –
Cc1cnc(Nc2ccc(OCC3CCC3)cc2)nc1Nc1ccc2oc(=O)[nH]c2c1 [Compound I-195, 5-[2-(4-Cyclobutylmethoxy-phenylamino)-5-methyl-pyrimidin-4-ylamino]-3H-benzooxazol-2-one] | < 500 nM | –
Cc1cnc(Nc2ccncc2F)nc1Nc1ccc2oc(=O)[nH]c2c1 [IV-64, N2-(3-fluoropyridin-4-yl)-5-methyl-N4-(2-oxo-2,3-dihydro-1,3-benzoxazol-5-yl)-2,4-pyrimidinediamine trifluoroacetic acid salt] | – | IC50 (trifluoroacetic acid salt): 500 to 5000 nM
Cc1cnc(Nc2ccc(F)cc2)nc1Nc1ccc2oc(=O)[nH]c2c1 [Compound I-470, 5-[2-(4-Fluoro-phenylamino)-5-methyl-pyrimidin-4-ylamino]-3H-benzooxazol-2-one] | < 500 nM | –
O=c1[nH]c2cc(Nc3nc(Nc4ccc(OC(F)(F)F)cc4)ncc3F)ccc2o1 [Compound I-109, N4-(benzoxazolin-2-on-5-yl)-N2-(4-trifluoromethoxyphenyl)-5-fluoropyrimidine-2,4-diamine trifluoroacetate salt] | < 500 nM | –
Cc1cnc(Nc2cnc(N3CC4CN(C(=O)C5CC5)CC4C3)c(F)c2)nc1Nc1ccc2oc(=O)[nH]c2c1 (centres unmarked) [II-53, 5-{2-[6-(5-Cyclopropanecarbonyl-hexahydro-pyrrolo[3,4-c]pyrrol-2-yl)-5-fluoro-pyridin-3-ylamino]-5-methyl-pyrimidin-4-ylamino}-3H-benzooxazol-2-one] | < 500 nM | –
Cc1cnc(Nc2cccc(C(F)(F)F)c2)nc1Nc1ccc2oc(=O)[nH]c2c1 [Compound I-158, 5-[5-Methyl-2-(3-trifluoromethyl-phenylamino)-pyrimidin-4-ylamino]-3H-benzooxazol-2-one] | < 500 nM | –
COc1cc(Nc2ncc(C)c(Nc3ccc4oc(=O)[nH]c4c3)n2)ccc1C#N [Compound I-380, N2-(4-cyano-3-methoxy)phenyl-5-methyl-N4-(2-oxo-2,3-dihydro-1,3-benzoxazol-5-yl)-2,4-pyrimidinediamine] | – | IC50: < 500 nM
